Laboratory results taken from patent publication US8952024B2, “Herbicidal pyrimidone derivatives” (E I du Pont de Nemours and Company, priority 2009, dated 2015).

How the values were obtained:
Assay in all cases: Test D pre-/postemergence plant response
Assay type in all cases: in vivo
[1] = tested on: dallisgrass (Paspalum dilatatum)
Outline: (§1)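 Under greenhouse conditions for 14 to 21 days, plants treated pre- or postemergence with surfactant-formulated compound were compared by eye with untreated controls and scored 0–100 (100 = complete control; dash = no result).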

[2] = tested on: naked crabgrass (Digitaria nuda)
Outline: as §1

[3] = tested on: kochia (Kochia scoparia)
Outline: as §1

[4] = tested on: itchgrass (Rottboellia cochinchinensis)
Outline: as §1

[5] = tested on: groundsel (common groundsel, Senecio vulgaris); settings: Postemergence
Outline: as §1

[6] = tested on: dayflower (Virginia (VA) dayflower, Commelina virginica)
Outline: as §1

[7] = tested on: green foxtail (Setaria viridis)
Outline: as §1

[8] = tested on: goosegrass (Eleusine indica)
Outline: as §1

[9] = tested on: Surinam grass (Brachiaria decumbens)
Outline: as §1

[10] = tested on: guineagrass (Panicum maximum)
Outline: as §1

[11] = tested on: sowthistle (common sowthistle, Sonchus oleraceous)
Outline: as §1

[12] = tested on: bermudagrass (Cynodon dactylon)
Outline: as §1

[13] = tested on: mallow (common mallow, Malva sylvestris)
Outline: as §1

[14] = tested on: barnyardgrass (Echinochloa crus-galli)
Outline: as §1

[15] = tested on: johnsongrass (Sorghum halepense)
Outline: as §1

[16] = Postemergence, 16 g ai/ha, scale 0 to 100
[17] = Postemergence, 31 g ai/ha, scale 0 to 100
[18] = Postemergence, 125 g ai/ha, scale 0 to 100 (0 no effect, 100 complete control)
[19] = Postemergence, 62 g ai/ha, scale 0 to 100 (0 no effect, 100 complete control)
[20] = Preemergence, 16 g ai/ha, scale 0 to 100, 0 no effect, 100 complete control
[21] = Preemergence, 31 g ai/ha, scale 0 to 100 (0 no effect, 100 complete control)
[22] = Preemergence, 62 g ai/ha, scale 0 to 100
[23] = Preemergence, 125 g ai/ha, scale 0 to 100
[24] = Postemergence, 31 g ai/ha, scale 0 to 100 (0 no effect, 100 complete control)

Cc1ccc(F)c(-n2c(-c3ccccc3)ncc(C(=O)C3=C(O)CCCC3=O)c2=O)c1 [Compound 51]
Plant response rating, Dallisgrass [1, 16]: 20
Plant response rating, Dallisgrass [1, 17]: 20
Plant response rating, Dallisgrass [1, 18]: 70
Plant response rating, Dallisgrass [1, 19]: 30
Plant response rating, Dallisgrass [1, 20]: 0
Plant response rating, Dallisgrass [1, 21]: 10
Plant response rating, Dallisgrass [1, 22]: 10
Plant response rating, Dallisgrass [1, 23]: 90
Plant response rating, Crabgrass, Naked [2, 16]: 35
Plant response rating, Crabgrass, Naked [2, 17]: 50
Plant response rating, Crabgrass, Naked [2, 18]: 65
Plant response rating, Crabgrass, Naked [2, 20]: 0
Plant response rating, Crabgrass, Naked [2, 21]: 0
Plant response rating, Crabgrass, Naked [2, 22]: 0
Plant response rating, Crabgrass, Naked [2, 23]: 0
Plant response rating, Kochia [3, 16]: 5
Plant response rating, Kochia [3, 17]: 5
Plant response rating, Kochia [3, 18]: 20
Plant response rating, Kochia [3, 19]: 5
Plant response rating, Kochia [3, 20]: 0
Plant response rating, Kochia [3, 22]: 0
Plant response rating, Kochia [3, 23]: 50
Plant response rating, Itchgrass [4, 16]: 0
Plant response rating, Itchgrass [4, 17]: 20
Plant response rating, Itchgrass [4, 18]: 80
Plant response rating, Itchgrass [4, 19]: 40
Plant response rating, Itchgrass [4, 20]: 0
Plant response rating, Itchgrass [4, 21]: 0
Plant response rating, Itchgrass [4, 22]: 0
Plant response rating, Itchgrass [4, 23]: 0
Plant response rating, Groundsel ([5]; 16 g ai/ha, scale 0 to 100): 85
Plant response rating, Groundsel ([5]; 31 g ai/ha, scale 0 to 100): 98
Plant response rating, Groundsel ([5]; 125 g ai/ha, scale 0 to 100 (0 no effect, 100 complete control)): 100
Plant response rating, Groundsel ([5]; 62 g ai/ha, scale 0 to 100 (0 no effect, 100 complete control)): 100
Plant response rating, Dayflower, VA [6, 16]: 10
Plant response rating, Dayflower, VA [6, 17]: 10
Plant response rating, Dayflower, VA [6, 18]: 20
Plant response rating, Dayflower, VA [6, 19]: 10
Plant response rating, Dayflower, VA [6, 20]: 0
Plant response rating, Dayflower, VA [6, 21]: 0
Plant response rating, Dayflower, VA [6, 23]: 0
Plant response rating, Foxtail, Green [7, 16]: 10
Plant response rating, Foxtail, Green [7, 17]: 20
Plant response rating, Foxtail, Green [7, 18]: 65
Plant response rating, Foxtail, Green [7, 19]: 40
Plant response rating, Foxtail, Green [7, 20]: 0
Plant response rating, Foxtail, Green [7, 21]: 0
Plant response rating, Foxtail, Green [7, 22]: 0
Plant response rating, Foxtail, Green [7, 23]: 0
Plant response rating, Goosegrass [8, 16]: 35
Plant response rating, Goosegrass [8, 17]: 65
Plant response rating, Goosegrass [8, 18]: 65
Plant response rating, Goosegrass [8, 19]: 65
Plant response rating, Goosegrass [8, 20]: 20
Plant response rating, Goosegrass [8, 21]: 20
Plant response rating, Goosegrass [8, 22]: 40
Plant response rating, Goosegrass [8, 23]: 40
Plant response rating, Surinam Grass [9, 16]: 50
Plant response rating, Surinam Grass [9, 17]: 60
Plant response rating, Surinam Grass [9, 18]: 80
Plant response rating, Surinam Grass [9, 19]: 70
Plant response rating, Surinam Grass [9, 20]: 90
Plant response rating, Surinam Grass [9, 21]: 98
Plant response rating, Guineagrass [10, 16]: 20
Plant response rating, Guineagrass [10, 17]: 30
Plant response rating, Guineagrass [10, 18]: 50
Plant response rating, Guineagrass [10, 19]: 30
Plant response rating, Guineagrass [10, 20]: 0
Plant response rating, Guineagrass [10, 21]: 0
Plant response rating, Guineagrass [10, 22]: 0
Plant response rating, Guineagrass [10, 23]: 75
Plant response rating, Sowthistle [11, 16]: 95
Plant response rating, Sowthistle [11, 17]: 98
Plant response rating, Sowthistle [11, 18]: 100
Plant response rating, Sowthistle [11, 19]: 100
Plant response rating, Sowthistle [11, 20]: 40
Plant response rating, Sowthistle [11, 21]: 75
Plant response rating, Sowthistle [11, 23]: 100
Plant response rating, Bermudagrass [12, 16]: 65
Plant response rating, Bermudagrass [12, 24]: 75
Plant response rating, Bermudagrass [12, 18]: 85
Plant response rating, Bermudagrass [12, 19]: 80
Plant response rating, Bermudagrass [12, 20]: 0
Plant response rating, Bermudagrass [12, 21]: 0
Plant response rating, Bermudagrass [12, 22]: 0
Plant response rating, Bermudagrass [12, 23]: 30
Plant response rating, Mallow [13, 16]: 0
Plant response rating, Mallow [13, 17]: 0
Plant response rating, Mallow [13, 18]: 20
Plant response rating, Mallow [13, 19]: 0
Plant response rating, Mallow [13, 20]: 0
Plant response rating, Mallow [13, 21]: 0
Plant response rating, Mallow [13, 22]: 0
Plant response rating, Mallow [13, 23]: 65
Plant response rating, Barnyardgrass [14, 16]: 65
Plant response rating, Barnyardgrass [14, 24]: 70
Plant response rating, Barnyardgrass [14, 18]: 70
Plant response rating, Barnyardgrass [14, 19]: 70
Plant response rating, Barnyardgrass [14, 20]: 0
Plant response rating, Barnyardgrass [14, 21]: 0
Plant response rating, Barnyardgrass [14, 22]: 0
Plant response rating, Barnyardgrass [14, 23]: 10
Plant response rating, Johnsongrass [15, 16]: 20
Plant response rating, Johnsongrass [15, 17]: 35
Plant response rating, Johnsongrass [15, 18]: 70
Plant response rating, Johnsongrass [15, 19]: 60
Plant response rating, Johnsongrass [15, 20]: 0
Plant response rating, Johnsongrass [15, 21]: 0
Plant response rating, Johnsongrass [15, 22]: 20
Plant response rating, Johnsongrass [15, 23]: 70
